Experimental data taken from the supplement of paper PMC10307832.

Tests used:
Assay in all cases: relative viability (nuclei count vs DMSO), 5 days (fraction); higher = more cells survive
Linsitinib + Navitoclax = compound: C[C@]1(O)C[C@@H](c2nc(-c3ccc4ccc(-c5ccccc5)nc4c3)c3c(N)nccn32)C1 [Linsitinib] + CC1(C)CCC(c2ccc(Cl)cc2)=C(CN2CCN(c3ccc(C(=O)NS(=O)(=O)c4ccc(N[C@H](CCN5CCOCC5)CSc5ccccc5)c(S(=O)(=O)C(F)(F)F)c4)cc3)CC2)C1 [Navitoclax] (partner 0.5 µM)
Method in brief: (§1)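 One day after seeding in 1536-well plates, lung cancer cell lines were dosed by pin tool. Dosing was either single-drug or a fixed anchor-drug dose plus five library-drug doses (not always all listed) in √10 steps. After 5 days, nuclei were stained in one fix-and-stain step and counted on 4× images, and relative viability is the nuclei count of treated wells over that of vehicle wells, given as the median of duplicate plates.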

Linsitinib + Foretinib = compound: C[C@]1(O)C[C@@H](c2nc(-c3ccc4ccc(-c5ccccc5)nc4c3)c3c(N)nccn32)C1 [Linsitinib] + COc1cc2c(Oc3ccc(NC(=O)C4(C(=O)Nc5ccc(F)cc5)CC4)cc3F)ccnc2cc1OCCCN1CCOCC1 [Foretinib] (partner 0.25 µM)
Method in brief: as §1

Ispinesib + Linsitinib = compound: Cc1ccc(C(=O)N(CCCN)[C@@H](c2nc3cc(Cl)ccc3c(=O)n2Cc2ccccc2)C(C)C)cc1 [Ispinesib] + C[C@]1(O)C[C@@H](c2nc(-c3ccc4ccc(-c5ccccc5)nc4c3)c3c(N)nccn32)C1 [Linsitinib] (partner 1 µM)
Method in brief: as §1

Ispinesib + Decitabine = compound: Cc1ccc(C(=O)N(CCCN)[C@@H](c2nc3cc(Cl)ccc3c(=O)n2Cc2ccccc2)C(C)C)cc1 [Ispinesib] + Nc1ncn([C@H]2C[C@H](O)[C@@H](CO)O2)c(=O)n1 [Decitabine] (partner 2 µM)
Method in brief: as §1

Cell Line	relative viability (Linsitinib + Navitoclax; first compound 0.01 µM)	relative viability (Linsitinib + Navitoclax; first compound 0.03162 µM)	relative viability (Linsitinib + Navitoclax; first compound 0.1 µM)	relative viability (Linsitinib + Navitoclax; first compound 0.3162 µM)	relative viability (Linsitinib + Navitoclax; first compound 1 µM)	relative viability (Linsitinib + Foretinib; first compound 0.01 µM)	relative viability (Linsitinib + Foretinib; first compound 0.03162 µM)	relative viability (Linsitinib + Foretinib; first compound 0.1 µM)	relative viability (Linsitinib + Foretinib; first compound 0.3162 µM)	relative viability (Linsitinib + Foretinib; first compound 1 µM)	relative viability (Ispinesib + Linsitinib; first compound 0.001 µM)	relative viability (Ispinesib + Linsitinib; first compound 0.003162 µM)	relative viability (Ispinesib + Linsitinib; first compound 0.01 µM)	relative viability (Ispinesib + Linsitinib; first compound 0.03162 µM)	relative viability (Ispinesib + Linsitinib; first compound 0.1 µM)	relative viability (Ispinesib + Decitabine; first compound 0.001 µM)	relative viability (Ispinesib + Decitabine; first compound 0.003162 µM)	relative viability (Ispinesib + Decitabine; first compound 0.01 µM)	relative viability (Ispinesib + Decitabine; first compound 0.03162 µM)	relative viability (Ispinesib + Decitabine; first compound 0.1 µM)
PC-14	0.968	1.01	1.03	0.984	0.944	0.888	0.912	0.995	0.626	0.901	1.08	1.13	1.1	0.862	0.17	0.21	0.18	0.0598	0.0507	0.0665
HCC-78	0.882	0.889	0.711	0.789	0.661	0.545	0.567	0.471	0.44	0.39	0.51	0.498	0.509	–	0.151	0.68	0.732	0.825	0.577	0.578
NCI-H1666	0.994	0.867	0.939	0.549	0.646	0.94	1.05	0.933	0.758	0.852	1.05	0.907	0.833	0.767	0.408	0.638	0.795	0.779	0.656	0.625
COR-L 105	0.826	0.759	0.856	0.604	0.709	0.969	1.03	1.08	0.956	0.908	0.985	0.993	0.814	0.492	0.26	0.595	0.662	0.67	0.43	0.337
LU99A	0.975	0.892	0.749	0.602	0.691	0.766	0.839	0.838	0.553	0.662	0.573	0.587	0.509	0.336	0.167	0.868	1.1	1.02	0.674	0.727
NCI-H596	0.835	1.01	0.938	0.805	0.931	0.831	0.978	0.873	0.871	0.858	1.29	0.988	1.17	1.06	0.551	1.02	1.89	1.15	1.02	0.885
201T	1.22	1.26	1.23	1.29	1.24	1.19	1.15	1.07	1.2	0.82	1.08	1.06	1.06	1.01	0.988	0.849	0.859	0.897	0.889	0.839
HCC-15	0.657	0.698	0.693	0.489	0.62	1.08	1.01	1.04	–	0.809	0.998	1.06	1.06	0.663	0.415	0.706	0.768	0.752	0.418	0.225
